Assay results from patent US9463330B2, “Delivery of skin care products” (INTERNATIONAL SCIENTIFIC PTY LTD, priority 2010, dated 2016).

What was measured:
human skin = assay: Delivery of Curcumin into human skin by Multi-Photon Microscopy (Example 4); format: in vivo; conditions: 0.5% w/w in mineral oil, one hour, volar forearm
Description: • 1) Mineral oil and a solution of Curcumin in mineral oil (0.5% w/w). • 2) 35 mm×35 mm segments of ETP008 and ETP012 magnetic materials; ETP008 being a parallel linear array of common pole pairs of 450 gauss peak flux with a centre to centre spatial separation of 4 mm; ETP012 being an oriented displaced dipolar magnetic element array created by drawing a secondary flux pattern over a linear pattern comprising 2.0 mm poles, creating a pair of displaced dipolar magnetic elements of pitch of 2.5 pairs per centimeter, with the inter-pair flux gradient being 700 gauss or 1750 gauss per centimeter and the secondary field elements being oriented at 90 degrees to the primary and consisting of parallel pairs of displaced dipolar magnetic elements of pitch of 1.5 mm, creating 3.5 pairs per centimeter, with 300 gauss per centimeter oriented flux. • 3) 35 mm×35 mm segments of a “passive” non-magnetic material which is identical to the active materials in all respects except for the presence of the magnetic field. • 4) Six healthy human subjects between the ages of 20 and 40. • 5) Multi-Photon Microscopy apparatus and computer software capable of processing Multi-Photon microscopy images. […]

human epidermis [1] = assay: Time dependent epidermal thickness change by OCT after Urea, two magnetic array types vs passive (Example 2); format: in vivo; conditions: for increase in epidermal thickness: passive regions
Description: In a further in vivo experience, two examples of arrays comprising pairs of displaced magnetic dipolar elements of the present invention were studied to illustrate the essential requirement for the pairs of displaced magnetic dipolar elements to be correctly configured to the diamagnetic property of the active ingredient to be delivered, in addition to the dielectric properties of the target receptor barrier.
Urea was applied to skin in a similar manner to Example 1. The urea and occlusive dressings were removed at 10 minute time periods to take measurements using OTC, with the urea and occlusive dressing being immediately replaced after each set of measurements. Each site was imaged in triplicate for each time point (i.e. three sites, triplicate images, seven time points). The laser images were then analysed to determine the differential change in skin morphology in response to the penetration of urea into facial skin under the influence of two different configurations of the present invention. FIG. 12 summaries this experiment, with the thickness of the epidermis provided next to the image.
Magnetic array Type ETP000 is a magnetic array in which a parallel linear array of common pole pairs of 250 gauss peak flux with a centre to centre spatial separation of 2 mm. Magnetic array Type ETP008 is a parallel linear array of common pole pairs of 450 gauss peak flux with a centre to centre spatial separation of 4 mm.

human epidermal tissues = assay: Time dependent epidermal thickness change after 5% Urea gel, four magnetic array configurations vs passive (Example 3); format: in vivo; conditions: 30 and 60 minutes
Protocol: As a further example, an additional experiment was undertaken to explore the time dependent changes in measured epidermal thickness using four different configurations of the present invention when compared to passive application.
As in previous examples, all test areas of skin were treated using a 5% Urea gel formation and occluded with Parafilm. The urea and occlusive dressings were removed at 30 minutes and 60 minutes to allow measurements to be taken, with the urea and dressing being immediately replaced after the 30 minute test. Four different arrangements of the pairs of displaced magnetic dipolar elements present invention were studied to elucidate the complex relationship between enhanced delivery to human skin and the specific arrangements of the pairs of displaced dipolar elements that make up the present invention.
The four arrangements of pairs of displaced dipolar elements used in this experiment were as follows:
Type ETP000 was a form of the present invention is which a parallel linear array of common pole pairs of 250 gauss peak flux with a centre to centre spatial separation of 2 mm.
Type ETP006 was a combination of two intersecting parallel linear common pole arrays at 90 degrees orientation to each other having a peak magnetic flux of 300 gauss and a spatial separation between pairs of 3.5 mm.
Type ETP008 was a parallel linear array of common pole pairs of 450 gauss peak flux with a centre to centre spatial separation of 4 mm.
Type ETP011 was a combination of two intersecting parallel linear common pole arrays at 90 degrees orientation to each other having a peak magnetic flux of 150 gauss and a spatial separation between pairs of 3 mm.
The segment marked Passive indicted the normal changes in epidermal thickness in response to topical and occluded application of a Urea Gel. This is considered the control.

human epidermis [2] = assay: In vitro diffusion of urea across human epidermal membranes in Franz-type cells (Example 5); format: in vitro ADME; conditions: 5% urea gel
Description: • 1) 5% w/w urea in VersaBase Gel (PCCA, Huston, Tex.). • 2) 11 mm diameter discs of flexible magnetic array matrix (ETP008) material and “passive” non-magnetic material which are identical to the active materials in all respects except for the presence of the magnetic field. • 3) Passive occlusive material consisting of a polymer film of similar thickness and cut to the same dimensions as the active magnetic polymer material. • 4) Epidermal membranes obtained from human skin sourced from abdominal region following abdominoplasty surgery. • 5) Pyrex glass Franz-type diffusion cells (enabling permeation across epidermal membranes of cross sectional area approximately 1.18 cm^2); receptor volume approximately 3.5 mL. • 6) Phosphate buffered saline (PBS). • 7) Thermostatted water bath with magnetic stirring capability. • 8) DMAB reagent (4% w/v) prepared with conc. sulphuric acid (4% v/v) in alcohol (95%). • 9) Digital portable LCR meter (TH2821/A/B, Changzhou Tonghui Electronic Co., Ltd, China). Method Preparation of Epidermal Membranes
Epidermal membranes were obtained by the heat separation method (Kligman & Christophers, 1963 Preparation of isolated sheets of human stratum corneum. Arch. Dermatol. 88: 70-73).
• 1) The membrane was placed between the donor and receptor compartment of the cell and allowed to equilibrate for 1 h with PBS in the receptor compartment which was stirred continuously with a magnetic stirrer. • 2) PBS was placed in the donor (1 mL) and receptor (approx. 3.5 mL) compartments of the cell which were then placed in a water bath maintained at 37±0.5° C. • 3) Epidermal membrane integrity was determined by visual inspection over a bright light and electrical resistance (kΩ) measurements using a digital portable LCR meter (TH2821/A/B, Changzhou Tonghui Electronic Co., Ltd, China). The measurements were taken by immersing the stainless steel probe lead tips, one each in the donor and receptor compartments (Fasano et al, 2002 Rapid integrity assessment of rat and human epidermal membranes for in vitro dermal regulatory testing: correlation of electrical resistance with tritiated water permeability. Toxicol. In Vitro 16: 731-40). […] Spectroscopic Analyses:
Urea quantification was based on the analytical method of Knorst et al 1997 (Analytical methods for measuring urea in pharmaceutical formulations. J. Pharm. Biomed. Anal. 15: 1627-32), a modified derivatisation by p-dimethylaminobenzaldehyde (DMAB) to convert urea into a coloured compound.
Derivatisation of urea in skin diffusate employed equal volumes of sample solution and the DMAB reagent (4% w/v) which was prepared with conc. sulphuric acid (4% v/v) in alcohol (95%). In this case 200 μL of the urea sample was mixed with 200 μL of the DMAB reagent. After 10 min the absorbance of the coloured derivatised solution was measured at 420 nm using a UVmini-1240 UV-Vis spectrophotometer (Shimadzu Scientific Instruments) against an appropriate reagent blank (receptor solution processed as for skin permeation receptor solution samples). Spectrophotometric analysis was carried out for quantitative analysis of urea that permeated the skin. […] The limit of detection (LOD) and limit of quantitation (LOQ) of the assay were 0.83 and 2.5 μg/mL respectively.
The results were compiled from nine cells containing the magnetic array film and eight control cells containing the passive non-magnetic film. A comparison of the cumulative amount of urea penetrating the epidermis to the receptor solution (μg/cm^2) versus time (mins) was plotted for passive and magnetic array enhanced applications (FIG. 16).

Curcumin concentrations in the skin compared with passive material (human skin; ETP008 magnetic material) | Curcumin concentrations in the skin compared with passive material (human skin; ETP012 magnetic material) | mean cumulative permeation over 2 h (human epidermis [2]; magnetic array material ETP008, mean±sem) | lag time (human epidermis [2]; magnetic film array ETP008) | steady state flux (human epidermis [2]; magnetic film array ETP008) | lag time (human epidermis [2]; non-magnetic passive material) | steady state flux (human epidermis [2]; non-magnetic passive material) | mean cumulative permeation over 2 h (human epidermis [2]; non-magnetic passive material, mean±sem) | Compound | epidermal thickness change (human epidermis [1]; Magnetic array Type ETP000, 30 minutes) | epidermal thickness change (human epidermis [1]; Magnetic array Type ETP000, 60 minutes) | epidermal thickness change (human epidermis [1]; Magnetic array Type ETP008, 30 minutes) | epidermal thickness change (human epidermis [1]; Magnetic array Type ETP008, 60 minutes) | increase in epidermal thickness (human epidermis [1]; 30 minutes) | increase in epidermal thickness (human epidermis [1]; 60 minutes) | penetration (changes in epidermal thickness) compared to passive (human epidermal tissues; Type 011 arrangement, 5% Urea gel) | penetration (changes in epidermal thickness) compared to passive (human epidermal tissues; Type ETP000, 5% Urea gel) | penetration (changes in epidermal thickness) compared to passive (human epidermal tissues; Type ETP006, 5% Urea gel) | penetration (changes in epidermal thickness) compared to passive (human epidermal tissues; Type ETP008, 5% Urea gel)
significant increase | significant increase | – | – | – | – | – | – | COc1cc(/C=C/C(=O)CC(=O)/C=C/c2ccc(O)c(OC)c2)ccc1O [Curcumin] | – | – | – | – | – | – | – | – | – | –
– | – | 89.54±7.34 μg/cm^2 | 21.13 ± 6.27 min | 0.75±0.06 μg/cm^2·min | 40.58 ± 3.98 min | 0.24±0.03 μg/cm^2·min | 20.83±2.02 μg/cm^2 | NC(N)=O [Urea] | 119.5% | 113.25% | 112.6% | 118% | 103.2% | 110% | decreasing normal penetration | enhanced penetrations to different degrees over time | enhanced penetrations to different degrees over time | enhanced penetrations to different degrees over time
